Data from the supplement of paper PMC10307832.

Columns and labels:
Experiment in all cases: relative viability (nuclei count vs DMSO), 5 days (fraction); higher = more cells survive
[1] = compound: Cc1ccccc1C(C(=O)NC1CCCCC1)N(C(=O)Cn1ccnc1C)c1cccc(F)c1 [IDH-C35] + COc1cc2c(Oc3ccc(NC(=O)C4(C(=O)Nc5ccc(F)cc5)CC4)cc3F)ccnc2cc1OCCCN1CCOCC1 [Foretinib] (partner 0.25 µM)
Summary of the method: (§1)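 Lung cancer cell lines in 1536-well plates were dosed by pin tool the day after seeding, either with one drug alone or with a fixed anchor-drug dose plus five library-drug doses (not always all listed) in √10 steps. After 5 days, cells were fixed and their nuclei stained in one step (final 0.05% Triton X-100, 1% formaldehyde, 1 ug/ml Hoechst), then counted on 4× images. Relative viability is the nuclei count in treated wells divided by that in vehicle wells. Values are medians of duplicate plates.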

[2] = compound: CC1=C(C(=NN1)C)CC2=C(C3=C(S2)N(C(=O)N(C3=O)C)CC(C)C)C(=O)N4C[C@@H](CO4)O + C[C@]1(O)C[C@@H](c2nc(-c3ccc4ccc(-c5ccccc5)nc4c3)c3c(N)nccn32)C1 [Linsitinib] (partner 1 µM)
Summary of the method: as §1

[3] = compound: Cc1ccccc1C(C(=O)NC1CCCCC1)N(C(=O)Cn1ccnc1C)c1cccc(F)c1 [IDH-C35] + COc1cccc2cc(-c3nc([C@H]4CC[C@H](C(=O)O)CC4)n4ncnc(N)c34)[nH]c12 [OSI-027] (partner 0.5 µM)
Summary of the method: as §1

[4] = compound: Cc1ccccc1C(C(=O)NC1CCCCC1)N(C(=O)Cn1ccnc1C)c1cccc(F)c1 [IDH-C35] + CC(C)C[C@H](NC(=O)[C@H](Cc1ccccc1)NC(=O)c1cnccn1)B(O)O [Bortezomib] (partner 0.002 µM)
Summary of the method: as §1

UMC-11
relative viability ([1]; first compound 0.08 µM): 0.889
relative viability ([1]; first compound 0.253 µM): 1.07
relative viability ([1]; first compound 0.8 µM): 0.997
relative viability ([1]; first compound 2.53 µM): 1.06
relative viability ([1]; first compound 8 µM): 1.11
relative viability ([2]; first compound 0.0025 µM): 1.01
relative viability ([2]; first compound 0.007906 µM): 1
relative viability ([2]; first compound 0.025 µM): 0.845
relative viability ([2]; first compound 0.07906 µM): 0.793
relative viability ([2]; first compound 0.25 µM): 0.767
relative viability ([3]; first compound 0.08 µM): 0.444
relative viability ([3]; first compound 0.253 µM): 0.47
relative viability ([3]; first compound 0.8 µM): 0.473
relative viability ([3]; first compound 2.53 µM): 0.482
relative viability ([3]; first compound 8 µM): 0.463
relative viability ([4]; first compound 0.08 µM): 0.736
relative viability ([4]; first compound 0.253 µM): 0.737
relative viability ([4]; first compound 0.8 µM): 0.487
relative viability ([4]; first compound 2.53 µM): 0.65
relative viability ([4]; first compound 8 µM): 0.636
